Results from US9303042B2, “Triazolothienopyrimidine compound inhibitors of urea transporters and methods of using inhibitors” (The Regents of the University of California, priority 2012, dated 2016).

system: not listed separately; assay: In vitro metabolic stability in hepatic microsomes; assay type: in vitro ADME, rat; conditions: 10 min, liver microsomes, NADPH, compound 5 μM
Protocol: Compounds, each at 5 μM, were incubated for specified times at 37° C. with rat liver microsomes (1 mg protein/ml; Sigma-Aldrich, St. Louis, Mo.) in potassium phosphate buffer (100 mM) containing 1 mM NADPH. The mixture was then chilled on ice, and 0.5 ml of ice-cold ethyl acetate was added.

Point of comparison: Cc1ccc(S(=O)(=O)c2nnn3c2nc(NCc2ccc(Cl)cc2)c2sccc23)cc1C [Compound 2bc, [3-(3,4-dimethyl-benzenesulfonyl)-thieno[2,3-e][1,2,3]triazolo[1,5-a]pyrimidin-5-yl]-(4-chloro-benzyl)-amine], “% Remaining after 10 min incubation with liver microsomes” value 83%. Against it:
- COc1ccc(CNc2nc3c(S(=O)(=O)c4ccc(C)c(C)c4)nnn3c3ccsc23)cc1 [Compound 2at, [3-(3,4-dimethyl-benzenesulfonyl)-thieno[2,3-e][1,2,3]triazolo[1,5-a]pyrimidin-5-yl]-(4-methoxy-benzyl)-amine] — lower, 12%
- O=S(=O)(c1ccc(Cl)cc1)c1nnn2c1nc(NCc1cccs1)c1sccc12 [Compound 2bi, {3-[4-chloro-benzenesulfonyl]-thieno[2,3-e][1,2,3]triazolo[1,5-a]pyrimidin-5-yl}-thiophen-2-ylmethyl-amine] — lower, 52%

same assay, conditions: hepatic microsomes

In the case of Cc1ccc(S(=O)(=O)c2nnn3c2nc(NCc2ccc(Cl)cc2)c2sccc23)cc1C [Compound 2bc, [3-(3,4-dimethyl-benzenesulfonyl)-thieno[2,3-e][1,2,3]triazolo[1,5-a]pyrimidin-5-yl]-(4-chloro-benzyl)-amine], the “metabolic stability (in words)” value is reported as “improved metabolic stability”.

biological target: T1, UT-B (Mus musculus, UniProt Q8VHL0); assay: Erythrocyte lysis assay of UT-B inhibition; assay type: cell-based; set-up: Screening was performed using mouse erythrocytes, which strongly express UT-B; endogenous in cells; host or cells: erythrocytes in whole blood of wild-type CD1 mice; conditions: not given
T1 sequence (Q8VHL0 1-384): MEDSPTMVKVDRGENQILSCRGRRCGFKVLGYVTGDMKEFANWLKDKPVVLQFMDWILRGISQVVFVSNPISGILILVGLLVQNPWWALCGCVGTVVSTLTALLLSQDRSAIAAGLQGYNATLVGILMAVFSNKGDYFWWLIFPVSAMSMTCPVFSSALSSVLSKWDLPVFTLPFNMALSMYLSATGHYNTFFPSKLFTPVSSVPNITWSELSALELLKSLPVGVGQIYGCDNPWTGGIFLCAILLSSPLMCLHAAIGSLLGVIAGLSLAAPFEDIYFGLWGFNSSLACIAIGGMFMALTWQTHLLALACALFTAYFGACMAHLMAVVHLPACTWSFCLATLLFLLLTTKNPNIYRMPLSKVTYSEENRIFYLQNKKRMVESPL
Protocol: Screening was performed using mouse erythrocytes, which strongly express UT-B and are highly water permeable because the cells also express aquaporin-1 (AQP1) water channels. The screening method involved assay of erythrocyte lysis in response to a large, outwardly directed gradient of acetamide, a urea analog that is transported efficiently by UT-B. A large, outwardly directed gradient of acetamide causes transient cell swelling, but little cell lysis, because UT-B-facilitated acetamide efflux limits water influx (see FIG. 1A). UT-B inhibition prevents acetamide efflux, allowing unopposed cell swelling and consequent cell lysis, which was recorded by reduced near-infrared light absorption at 710 nm.
Primary screening was done using a collection of 100,000 diverse, drug-like compounds from commercial sources (ChemDiv, San Diego, Calif.; Asinex, Winston-Salem, N.C.). […] Vigorous mixing was achieved by repeated pipetting. Erythrocyte lysis was quantified by absorbance at 710 nm wavelength, made within 5 min after hypo-osmolar shock. […] For analysis of structure-activity relationships >900 commercially available analogs (ChemDiv and Asinex) were tested.

CCc1ccc(S(=O)(=O)c2nnn3c2nc(N2CCOCC2)c2sccc23)cc1 [Compound 2bq] gave an IC50 of 5.71 µM.

same assay, conditions: Table 1, commercially available analogues, erythrocyte lysis assay; read-out: IC50

Point of comparison: CCOCCCNc1nc2c(S(=O)(=O)c3cc(C)ccc3C)nnn2c2ccsc12 [Compound 2ck, {3-[2,5-dimethyl-benzenesulfonyl]-thieno[2,3-e][1,2,3]triazolo[1,5-a]pyrimidin-5-yl}-3-ethoxypropyl-amine], IC50 9.85 µM. Against it:
- COCCCNc1nc2c(S(=O)(=O)c3ccc(Cl)cc3)nnn2c2ccsc12 [Compound 2bj, {3-[4-chloro-benzenesulfonyl]-thieno[2,3-e][1,2,3]triazolo[1,5-a]pyrimidin-5-yl}-3-methoxypropyl-amine] — 4.3-fold lower, 2.31 µM
- Cc1ccc(S(=O)(=O)c2nnn3c2nc(NC(C)C)c2sccc23)cc1C [Compound 2av] — 4.5-fold lower, 2.19 µM
- Cc1ccc(C)c(S(=O)(=O)c2nnn3c2nc(NCc2ccccc2)c2sccc23)c1 [Compound 2cq, [3-(2,5-dimethyl-benzenesulfonyl)-thieno[2,3-e][1,2,3]triazolo[1,5-a]pyrimidin-5-yl]-benzyl-amine] — 6-fold lower, 1.65 µM
- COc1ccc(CNc2nc3c(S(=O)(=O)c4ccc(C)c(C)c4)nnn3c3ccsc23)cc1 [Compound 2at, [3-(3,4-dimethyl-benzenesulfonyl)-thieno[2,3-e][1,2,3]triazolo[1,5-a]pyrimidin-5-yl]-(4-methoxy-benzyl)-amine] — 6.4-fold lower, 1.54 µM
- O=S(=O)(c1ccc(Cl)cc1)c1nnn2c1nc(NCc1cccs1)c1sccc12 [Compound 2bi, {3-[4-chloro-benzenesulfonyl]-thieno[2,3-e][1,2,3]triazolo[1,5-a]pyrimidin-5-yl}-thiophen-2-ylmethyl-amine] — 46-fold lower, 0.214 µM
- Cc1ccc(S(=O)(=O)c2nnn3c2nc(NCc2ccc(Cl)cc2)c2sccc23)cc1C [Compound 2bc, [3-(3,4-dimethyl-benzenesulfonyl)-thieno[2,3-e][1,2,3]triazolo[1,5-a]pyrimidin-5-yl]-(4-chloro-benzyl)-amine] — 17-fold lower, 0.582 µM
- O=S(=O)(c1cccc(Cl)c1)c1nnn2c1nc(NCc1cccs1)c1sccc12 [Compound 2cw, {3-[3-chloro-benzenesulfonyl]-thieno[2,3-e][1,2,3]triazolo[1,5-a]pyrimidin-5-yl}-thiophen-2-ylmethyl-amine] — 4.7-fold lower, 2.08 µM
- Cc1ccc(S(=O)(=O)c2nnn3c2nc(NC2CCCC2)c2sccc23)cc1 [Compound 2al] — 1.5-fold lower, 6.38 µM
- NC(=O)C1CCN(c2nc3c(S(=O)(=O)c4cccc(Cl)c4)nnn3c3ccsc23)CC1 [Compound 2cv] — 3.1-fold lower, 3.14 µM
- CCOCCCNc1nc2c(S(=O)(=O)c3ccc(C(C)C)cc3)nnn2c2ccsc12 [Compound 2bl, {3-[4-isopropyl-benzenesulfonyl]-thieno[2,3-e][1,2,3]triazolo[1,5-a]pyrimidin-5-yl}-3-ethoxylpropyl-amine] — 2.4-fold lower, 4.08 µM
- Cc1ccc(S(=O)(=O)c2nnn3c2nc(NC2CCCCC2)c2sccc23)cc1C [Compound 2bb] — within 1.5-fold, 8.19 µM
- Cc1ccc(S(=O)(=O)c2nnn3c2nc(N2CCC(C(N)=O)CC2)c2sccc23)cc1C [Compound 2aq] — 4.6-fold lower, 2.12 µM
- Cc1ccc(S(=O)(=O)c2nnn3c2nc(NCCCOC(C)C)c2sccc23)cc1 [Compound 2af, {3-[4-methyl-benzenesulfonyl]-thieno[2,3-e][1,2,3]triazolo[1,5-a]pyrimidin-5-yl}-3-(1-methylethoxyl)propyl-amine] — within 1.5-fold, 11.7 µM
- CCc1ccc(S(=O)(=O)c2nnn3c2nc(NCCN(C)C)c2sccc23)cc1 [Compound 2ch] — within 1.5-fold, 8.46 µM
- NC(=O)C1CCN(c2nc3c(S(=O)(=O)c4ccccc4)nnn3c3ccsc23)CC1 [Compound 2aa] — within 1.5-fold, 7.66 µM
- CCc1ccc(S(=O)(=O)c2nnn3c2nc(N2CCN(CC)CC2)c2sccc23)cc1 [Compound 2cd] — within 1.5-fold, 11.9 µM
- CCN1CCN(c2nc3c(S(=O)(=O)c4ccc(C)cc4)nnn3c3ccsc23)CC1 [Compound 2ak] — within 1.5-fold, 7.88 µM
- Cc1ccc(S(=O)(=O)c2nnn3c2nc(NCc2ccc(F)cc2)c2sccc23)cc1C [Compound 2be, [3-(3,4-dimethyl-benzenesulfonyl)-thieno[2,3-e][1,2,3]triazolo[1,5-a]pyrimidin-5-yl]-(4-fluoro-benzyl)-amine] — 1.7-fold lower, 5.64 µM
- CCc1ccc(S(=O)(=O)c2nnn3c2nc(N2CCN(C)CC2)c2sccc23)cc1 [Compound 2cc] — 17-fold lower, 0.59 µM
- COCCNc1nc2c(S(=O)(=O)c3ccc(C)cc3)nnn2c2ccsc12 [Compound 2ai, {3-[4-methyl-benzenesulfonyl]-thieno[2,3-e][1,2,3]triazolo[1,5-a]pyrimidin-5-yl}-2-methoxyethyl-amine] — 3.4-fold lower, 2.87 µM
- COc1cccc(CNc2nc3c(S(=O)(=O)c4ccc(C)cc4)nnn3c3ccsc23)c1 [Compound 2ah, [3-(4-methyl-benzenesulfonyl)-thieno[2,3-e][1,2,3]triazolo[1,5-a]pyrimidin-5-yl]-(3-methoxy-benzyl)-amine] — 3.6-fold lower, 2.75 µM
- CC(C)c1ccc(S(=O)(=O)c2nnn3c2nc(NCC2CCCO2)c2sccc23)cc1 (centres unmarked) [Compound 2bk, tetrahydrofuran-2-ylmethyl-[3-(4-isopropyl-benzenesulfonyl)-thieno[2,3-e][1,2,3]triazolo[1,5-a]pyrimidin-5-yl]-amine] — 3.7-fold lower, 2.66 µM
- COCCNc1nc2c(S(=O)(=O)c3ccc(C)c(C)c3)nnn2c2ccsc12 [Compound 2ba, {3-[3,4-dimethyl-benzenesulfonyl]-thieno[2,3-e][1,2,3]triazolo[1,5-a]pyrimidin-5-yl}-2-methoxyethyl-amine] — 3.9-fold lower, 2.5 µM
- Cc1ccc(C)c(S(=O)(=O)c2nnn3c2nc(NCc2ccco2)c2sccc23)c1 [Compound 2cs, furan-2-ylmethyl-[3-(2,5-dimethyl-benzenesulfonyl)-thieno[2,3-e][1,2,3]triazolo[1,5-a]pyrimidin-5-yl]-amine] — 3.7-fold lower, 2.66 µM
- CCc1ccc(S(=O)(=O)c2nnn3c2nc(NC2CCCC2)c2sccc23)cc1 [Compound 2bz] — 6.4-fold lower, 1.54 µM
- COc1cccc(CNc2nc3c(S(=O)(=O)c4ccc(C)c(C)c4)nnn3c3ccsc23)c1 [Compound 2ay, [3-(3,4-dimethyl-benzenesulfonyl)-thieno[2,3-e][1,2,3]triazolo[1,5-a]pyrimidin-5-yl]-(3-methoxy-benzyl)-amine] — 2.6-fold lower, 3.77 µM
- Cc1ccc(S(=O)(=O)c2nnn3c2nc(NC(C)c2ccccc2)c2sccc23)cc1 (centres unmarked) [Compound 2ag, [3-(4-methyl-benzenesulfonyl)-thieno[2,3-e][1,2,3]triazolo[1,5-a]pyrimidin-5-yl]-(1-phenyl-1-methyl)methyl-amine] — within 1.5-fold, 11.2 µM
- Cc1ccc(S(=O)(=O)c2nnn3c2nc(NCCCOC(C)C)c2sccc23)cc1C [Compound 2ax, {3-[3,4-dimethyl-benzenesulfonyl]-thieno[2,3-e][1,2,3]triazolo[1,5-a]pyrimidin-5-yl}-3-(1-methylethoxyl)propyl-amine] — 4-fold lower, 2.48 µM
- Cc1ccc(C)c(S(=O)(=O)c2nnn3c2nc(N2CCC(C(N)=O)CC2)c2sccc23)c1 [Compound 2ci] — 2.9-fold lower, 3.34 µM
- Cc1ccc(C)c(S(=O)(=O)c2nnn3c2nc(NC(C)c2ccccc2)c2sccc23)c1 (centres unmarked) [Compound 2cm, [3-(2,5-dimethyl-benzenesulfonyl)-thieno[2,3-e][1,2,3]triazolo[1,5-a]pyrimidin-5-yl]-(1-phenyl-1-methyl)methyl-amine] — 14-fold lower, 0.702 µM
- Cc1ccc(C)c(S(=O)(=O)c2nnn3c2nc(NCCCOC(C)C)c2sccc23)c1 [Compound 2cl, {3-[2,5-dimethyl-benzenesulfonyl]-thieno[2,3-e][1,2,3]triazolo[1,5-a]pyrimidin-5-yl}-3-(1-methylethoxyl)propyl-amine] — 4.8-fold lower, 2.06 µM
- Cc1ccc(S(=O)(=O)c2nnn3c2nc(NCC2CCCO2)c2sccc23)cc1 (centres unmarked) [Compound 2ae, tetrahydrofuran-2-ylmethyl-[3-(4-methyl-benzenesulfonyl)-thieno[2,3-e][1,2,3]triazolo[1,5-a]pyrimidin-5-yl]-amine] — 1.7-fold lower, 5.74 µM
- Cc1ccc(C)c(S(=O)(=O)c2nnn3c2nc(NCc2ccc(F)cc2)c2sccc23)c1 [Compound 2cp, [3-(2,5-dimethyl-benzenesulfonyl)-thieno[2,3-e][1,2,3]triazolo[1,5-a]pyrimidin-5-yl]-(4-fluoro-benzyl)-amine] — 15-fold lower, 0.671 µM
- Cc1ccc(S(=O)(=O)c2nnn3c2nc(NCc2ccco2)c2sccc23)cc1 [Compound 2ac, furan-2-ylmethyl-[3-(4-methyl-benzenesulfonyl)-thieno[2,3-e][1,2,3]triazolo[1,5-a]pyrimidin-5-yl]-amine] — 4.6-fold lower, 2.15 µM
- CCN(CC)c1nc2c(S(=O)(=O)c3ccc(C)c(C)c3)nnn2c2ccsc12 [Compound 2ap] — 4-fold lower, 2.49 µM
